According to patent publication US20210378193A1, “HAPLOID EMBRYOGENESIS” (STICHTING WAGENINGEN RESEARCH, priority 2013, published 2021):

Legend:
[1] = tested on: B. napus microspore culture; assay: embryo yield in B. napus microspore culture; type: cell-based, Brassica napus
Experimental: Brassica napus L. DH12075 was used as a donor plant for microspore embryo culture. The B. napus plant growth and microspore isolation procedures were performed as described in Custers, J. B. M. (2003) “Microspore culture in rapeseed (Brassica napus L.)” in Doubled haploid production in crop plants: a manual, M. Maluszynski, K. J. Kasha, B. P. Forster, and I. Szarejko, eds (Dordrecht: Kluwer Academic Publishers), pp. 185-193. Flower buds for microspore culture were grouped by size (measured from the tip of the flower bud to the bottom of the sepal), ranging from 3.0 to 3.5 mm for DH4079 and from 2.6 to 4.0 mm for DH12075. The microspores were isolated and cultured in NLN-13 medium (see Lichter, R. (1982) […]. For induction of embryogenesis, microspores were cultured in the dark at 33° C. for 20 hours and subsequently transferred to 25° C. Non-induced microspore cultures were cultured continuously at 25° C. or 18° C. Trichostatin A (TSA, Sigma-Aldrich) was prepared in DMSO. Freshly isolated microspores were inoculated in a medium containing TSA or the same volume of DMSO as a control and cultured for 20 hours at the temperature indicated for each experiment. After this period, the cultures were centrifuged at 200 g for 3 min, resuspended in fresh NLN-13 medium without TSA, and transferred to 25° C.
The developmental fate of heat-stressed control cultures and cultures exposed to both heat-stress and TSA was followed by examining older cultures in more detail. […] Heat-stressed microspores and pollen were treated with a range of TSA concentrations, and the cultures examined after five and 15 days using DAPI staining to characterize the different multicellular structures that developed.
Microspores and immature pollen from different bud sizes were cultured in the presence of different concentrations of TSA compared with the equivalent volume of DMSO (control) at three temperatures: A-D=33° C., D-F=25° C., G-H=18° C. For each treatment, the samples are ranked from left to right along the z-axis according to the developmental stage of the microspores and pollen. […] The microspores and pollen were categorized as follows: mid-uninucleate microspore (white bars), late-uninucleate microspore (grey bars), and binucleate pollen (black bars) stages. […] The percentage of cells that divided gametopyhytically or sporophytically after five days of microspore culture at B=33° C., E=25° C., H=18° C. […] Dead microspores and pollen were not counted. […]

[2] = tested on: BABY BOOM (BBM); LEAFY COTYLEDON1 (LEC1); LEC2, and FUSCA3; assay: semi-quantitative RT-PCR of embryo-expressed genes in B. napus microspore culture; type: cell-based, Brassica napus; conditions: TSA-treated microspore cultures, regardless of culture temperature
Experimental: Total RNA isolation and on-column DNase digestion were performed using the InviTrap Spin Plant RNA Mini Kit (Invitek) according to the manufacturer's instructions. For semi-quantitative RT-PCR, 250 ng of total RNA was used for first-strand cDNA synthesis with the Taqman Reverse Transcription Reagents Kit (Applied Biosystems). The cycling parameters were: one cycle at 98° C. for 30 s, 30 cycles comprising 98° C. for 5 s, 60° C. for 30 s, followed by 72° C. for 1 min. The semi-quantitative RT-PCR primers are from Malik et al. (2007) Plant Physiol. 144: 134-154. The quantitative RT-PCR primers for microarray validation were designed based on oligonucleotide probes from Affymetrix GeneChip® Brassica Exon 1.0ST Array (see Malik et al. (2007) supra and Love, C. G., et al. (2010) PloS one 5: e12812). The Arabidopsis hda T-DNA insertion lines were genotyped using the PCR primers. […]
The cell clusters that are formed in heat-stressed, TSA-treated cultures resemble those found in control cultures that are only exposed to a heat-stress treatment. […] Semi-quantitative RT-PCR and GFP reporter lines were used to determine whether the different types of sporophytic structures that develop in control and TSA-treated cultures are embryogenic. […]

[3] = tested on: B. rapa genotypes microspore culture; assay: embryogenic cell divisions in Brassica rapa microspore culture; type: cell-based; conditions: 0.5 μM TSA, six B. rapa genotypes
Experimental: The following B. rapa genotypes were tested in an experiment that measured t h e embryogenic activity of 0.5 μM TSA in microspore culture against respective controls in the absence of TSA: Microspores were obtained from donor buds. Donor buds were ranked from youngest (1) tooldest (3) developmental stage, whereby (2) is an intermediate stage. […] The data also indicates how genotype and/or donor bud stage may influence the level of embryogenic cell divisions caused by enhancement with TSA treatment over controlsin […]. Such stage-dependency is a normal observation in this tissue culture system.

[4] = tested on: Brassica oleracea Gongylodes group (kohlrabi) microspores; assay: embryo production in Brassica oleracea Gongylodes group (kohlrabi) microspore culture; type: cell-based
Text: Microspores of different developmental stages were isolated by a standard method ([…] 1982, Journal of Plant Physiology 105:427-434).

SMILES: CC(/C=C/C(=O)NO)=C\[C@@H](C)C(=O)c1ccc(N(C)C)cc1 [TSA, trichostatin A]
- embryo production ([1]; culture at 25° C. (no heat stress), practically none in controls): Up to 0.2%
- development of histodifferentiated embryos ([1]; cultured at 18° C.): did not develop
- embryo abundance relative to control cultures ([1]; heat-stressed cultures, 0.05 μM TSA): up to five times more abundant than in control cultures
- heart to cotyledon stage embryos ([1]; heat-stressed cultures, 0.5 μM TSA, 15 days, control up to 0.3%): up to 0.05%
- expression of BBM, LEC1, LEC2 and FUSCA3 [2]: enhanced
- total number of embryogenic cells per bud size compared to the control [3]: greatly increases
- general embryo production, sum of experiments ([4]; 0.5 μM TSA, not heat-shocked (25° C.), control sum 204): 841
- large embryos in a recalcitrant (non-responsive) genotype ([4]; 18 days, not in the control): Large embryos are present
- embryogenic clusters in a recalcitrant (non-responsive) genotype ([4]; early time point, not in the control culture): found at an early time point
